Assay results taken from patent US10463044B2, “Molecules that inhibit efflux pumps in multi-drug resistant bacteria and uses thereof” (priority 2014, dated 2019).
Converted amounts (≈) assume the structure as drawn. “And” between values parts separate entries of the source, which are not always exact repeats. Equal entries are not always repeated. Where two headings read alike, the source gives them in different places.

Legend:
[1] = system: E. coli cells; assay: Potassium release from E. coli cells (potassium selective electrode); settings: control
Experimental: This change in potassium ion concentrations was measured using a Potassium selective electrode. […] Gramicidin D and valinomycin were used as controls. […] The potassium transport ability of C8-C14 hydraphiles was then tested at 4 μM.

[2] = system: tetracycline resistant E. coli (tetA efflux pump); assay type: cell-based, Escherichia coli
Experimental: (§1) However, the bacterial strains used herein are multidrug resistant and the effect of hydraphiles on the inhibition of resistance mechanism (efflux pumps) was not known. The hydraphiles and the controls were tested next to see whether they could recover the activity of antibiotics against efflux pump expressing Gram-positive and Gram-negative bacteria. The MIC of antibiotics were determined in the presence of ½ [MIC] or ¼ [MIC] of each hydraphile or the controls used.

[3] = target: T1, NorA efflux pump (Staphylococcus aureus, UniProt P0A0J7); assay: Ethidium bromide release from preloaded S. aureus 1199B (efflux pump inhibition); assay type: cell-based; settings: compound at 4 μM
T1 construct: Gram-positive S. aureus 1199B was used that overexpresses the NorA efflux pump; endogenous in cells; host or cells: S. aureus 1199B
T1 sequence (P0A0J7 whole entry): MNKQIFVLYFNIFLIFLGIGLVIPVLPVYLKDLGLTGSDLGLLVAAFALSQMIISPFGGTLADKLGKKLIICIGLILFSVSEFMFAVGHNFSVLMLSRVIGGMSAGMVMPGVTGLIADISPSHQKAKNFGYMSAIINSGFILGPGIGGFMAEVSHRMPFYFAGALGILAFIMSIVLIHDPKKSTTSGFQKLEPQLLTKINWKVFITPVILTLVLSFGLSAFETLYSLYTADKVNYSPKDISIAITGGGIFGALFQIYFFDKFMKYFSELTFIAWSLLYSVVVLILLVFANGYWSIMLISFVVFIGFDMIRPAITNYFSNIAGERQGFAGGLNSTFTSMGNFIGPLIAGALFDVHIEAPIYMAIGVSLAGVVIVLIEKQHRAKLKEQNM
Experimental: In a following experiment, the ability of hydraphiles to inhibit the activity of efflux pumps was determined. Specifically, the S. aureus cells were preloaded with EB using 100 μM CCCP. The cells were washed to remove extracellular EB and CCCP. The cells were then treated with hydraphiles. If hydraphiles inhibit the activity of efflux pumps, then there should be small or no change in fluorescence of EB-DNA complex. […] However, if there is no effect of hydraphiles on the efflux pump activity, EB would be released resulting in a decrease in fluorescence.

[4] = system: Cos-7; assay: Cytotoxicity of hydraphiles to Cos-7 (XTT assay); settings: concentration not given
[5] = system: tetracycline resistant E. coli (tetA efflux pump); assay: microbe, parasite or virus in culture; assay type: cell-based, Escherichia coli
From the text: (§2) Among the organisms studied are several strains of the bacterium E. coli.
Minimal Inhibitory Concentration (MIC) Procedure. […] Streak the E. coli (DH5α or K-12 MG1655) strain on L.B agar plates. […] Prepare initial concentration of all the compounds required. • 5. […] Vortex each test tube for 2-3 seconds. • 9. […] Vortex each test tube for 2-3 seconds. • 11. […]
(§3) The minimal inhibitory concentrations (MIC) of all the compounds against three bacterial strains were first determined using the microtiter technique as described above. […] Antimicrobial property of hydraphiles is attributed to the disruption of ion homeostasis in bacteria.

[6] = system: HeLa; assay: Cytotoxicity of hydraphiles to HeLa (XTT assay); settings: concentration not given
[7] = system: S. aureus 1199B; assay: MIC, S. aureus 1199B; assay type: cell-based, Staphylococcus aureus
From the text: (§4) K. pneumoniae (ATCC BAA 2146; another Gram-negative bacterium) that expresses multiple classes of efflux pumps and NDM-1 gene was also used. This K. pneumoniae is a clinically relevant strain that was isolated from a patient. Gram-positive S. aureus 1199B was used that overexpresses the NorA efflux pump. Since ethidium bromide and norfloxacin are the substrates of efflux pumps, S. aureus 1199B was used to evaluate the activity of efflux pumps in the presence of the hydraphiles and other membrane disruptors.
as §3

[8] = system: HEK-293; assay: Cytotoxicity of hydraphiles to HEK-293 (XTT assay); settings: concentration not given
[9] = target: T1, NorA efflux pump; assay: Ethidium bromide accumulation in S. aureus 1199B; assay type: cell-based; settings: compound at 4 μM
Experimental: To determine if the activity of efflux pump and accumulation of substrate in the cell cytoplasm was affected by hydraphiles, the S. aureus 1199B strain overexpressing the NorA efflux pump was used. Since ethidium bromide (EB) is one of the substrates of the norA efflux pump, fluorescence from DNA-EB complex was utilized to measure effect of hydraphiles on the norA efflux pump. First, EB was added to the S. aureus 1199B cells followed by hydraphiles or the controls. If the hydraphiles allows for EB accumulation in the cell cytoplasm, an increase in fluorescence would be expected. […] Next step was to determine if the accumulation of EB in the cell cytoplasm was due to the ability of hydraphiles to inhibit the activity of the norA efflux pump or just a simple membrane disruption mechanism.

[10] = system: HEK-293 cells; assay type: cell-based, human
From the text: It could be argued that hydraphiles could also localize and disrupt the mammalian cell membranes. […] These hydraphiles increased the permeability of E. coli cells at ½ MIC concentrations. […] It is concluded that C8-C14 hydraphiles can selectively increase the permeability of bacterial cells without affecting the permeability of mammalian cells. […] DMSO and Triton X-100 were used as controls.

[11] = system: Tet^R E. coli; assay: Resistance development by sequential culturing
From the text: Sequential culturing method was used to determine if bacteria could develop resistance to the hydraphiles.

[12] = system: K. pneumoniae (ATCC BAA 2146); assay: MIC, K. pneumoniae; assay type: cell-based, Klebsiella pneumoniae; settings: for MIC: Klebsiella pneumoniae, BAA2146, read-out: Minimal Inhibitory Concentrations (MIC) K. pneumoniae
From the text: as §4, §3

[13] = system: K. pneumoniae (ATCC BAA 2146); assay: Recovery of antibiotic activity against K. pneumoniae by hydraphiles; assay type: cell-based, Klebsiella pneumoniae
Experimental: as §1

[14] = system: E. coli; assay: Minimum inhibitory concentration (MIC), E. coli; assay type: cell-based, Escherichia coli; settings: compound alone
From the text: as §2
(§5) Minimal Inhibitory Concentration (MIC) Procedure. […] Streak the E. coli (DH5α or K-12 MG1655) strain on L.B agar plates. […] Prepare initial concentration of all the compounds required. • 5. […] Vortex each test tube for 2-3 seconds. • 9. […] Vortex each test tube for 2-3 seconds. • 11.

[15] = system: B. subtilis; assay: Minimum inhibitory concentration (MIC), B. subtilis; assay type: cell-based, Bacillus subtilis; settings: compound alone
Experimental: Among the organisms studied are several strains of the bacterium E. coli. […] Experiments were conducted to determine the MIC values for the synthetic amphiphiles known as lariat ethers according to the procedures described in Antimicrobial M07-A9: Methods for Dilution Antimicrobial Susceptibility Tests for Bacteria that Grow Aerobically; Clinical and Laboratory Standards Institute, 2012; Vol. 32, 67 pp. MIC values so determined for several lariat ethers and for several antibiotics are shown in Table 1.

[16] = system: K-12 E. coli; assay: Combination of amphiphile and antibiotic against K-12 E. coli; assay type: cell-based, Escherichia coli; settings: amphiphile used 6 μM
Experimental: (§6) Steps 1-7, described in the MIC procedure, shown in Example 2, were followed. • 2. While the E. coli grew, the appropriate volume of compound was added to each test tube. • 3. Antibiotics were added at the required volume of solution to obtain the desired concentration in each test tube. […] Each test tube was vortexed for 2-3 seconds. • 5. Steps 10-12 from the MIC procedure, shown in Example 2, were then executed.

[17] = system: S. cerevisiae; assay: Minimum inhibitory concentration (MIC), S. cerevisiae; assay type: cell-based, Saccharomyces cerevisiae; settings: compound alone
[18] = system: K-12 E. coli; assay: MIC, K-12 E. coli; assay type: cell-based, Escherichia coli; settings: compound alone
From the text: as §5

[19] = system: DH5α E. coli; assay type: cell-based, Escherichia coli; settings: compound alone
From the text: as §2, §5

[20] = system: DH5α E. coli; assay: Combination of lariat ether and antibiotic against DH5α E. coli; assay type: cell-based, Escherichia coli; settings: 0.4 vol-% DMSO;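 also: E. coli grown in test-tube liquid culture at a fixed total volume of 2 mL, with the amphiphile and the antibiotic both added to each tube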
Experimental: The volume of water added was between 12 to 0.5 μL. The volume of water added was not constant but the volume of media was changed so that the total volume was kept constant at 2 mL.
as §6

[21] = system: HEK-293 cells; assay: Toxicity of lariat ethers to HEK-293 cells (MTT assay); assay type: cell-based
From the text: The error bars represent the standard error. […]

[22] = amphiphile 1 μM (½[MIC] for C14 hydraphile)
[23] = compound alone, microtiter, inhibition greater than 80% considered as the MIC
[24] = compound alone, inhibition greater than 80% considered as the MIC
[25] = amphiphile/control 1700 μM (0.1%)
[26] = compound alone, tetracycline resistant E. coli
[27] = rifampicin, amphiphile used 8 μM
[28] = rifampicin, amphiphile used 16 μM
[29] = rifampicin, amphiphile used 18 μM
[30] = rifampicin, amphiphile used […] μM
[31] = tetracycline, amphiphile used 4 μM
[32] = tetracycline, amphiphile used 16 μM
[33] = tetracycline, amphiphile used 18 μM
[34] = tetracycline, amphiphile used […] μM

CC(C)[C@@H]1NC(=O)[C@H](C)OC(=O)[C@@H](C(C)C)NC(=O)[C@@H](C(C)C)OC(=O)[C@H](C(C)C)NC(=O)[C@H](C)OC(=O)[C@@H](C(C)C)NC(=O)[C@@H](C(C)C)OC(=O)[C@H](C(C)C)NC(=O)[C@H](C)OC(=O)[C@@H](C(C)C)NC(=O)[C@@H](C(C)C)OC1=O [Valinomycin, reference compound]
ion transport from E. coli (potassium) [1]: no change in ion transport
Fold Enhancement ([2]; amphiphile/control 20 μM): 2-fold
[Tetracycline] μM in combination ([2]; amphiphile/control 20 μM): 450 ± 100 µM

N#CC(C#N)=NNc1cccc(Cl)c1 [CCCP]
inhibition of NorA activity, lower than that of hydraphiles [3]: 30%
cytotoxicity to Cos-7 (control) [4]: cytotoxic
Fold Enhancement [2, 22]: 1-fold
[Antibiotic] μM / Used (μM) in combination [2, 22]: 900 µM
Fold Enhancement ([2]; amphiphile/control 21 μM): 2-fold
[Tetracycline] μM in combination ([2]; amphiphile/control 21 μM): 450 µM
[Tetracycline] μM in combination ([2]; amphiphile/control 42 μM): 225 µM
Minimal Inhibitory Concentrations (MIC) E. coli (Tet^R) [5, 23]: 56 µM
cytotoxicity to HeLa (control) [6]: cytotoxic
Minimal Inhibitory Concentrations (MIC) S. aureus 1199B [7, 24]: ≤4 µM
cytotoxicity to HEK-293 (control) [8]: cytotoxic
accumulation of ethidium bromide (EB) in the cell cytoplasm [9]: much lower

Triton X-100 [reference compound]
[Tetracycline] μM in combination ([2]; amphiphile/control 20 μM): 450 ± 100 µM
Fold Enhancement [2, 25]: 2-fold
[Tetracycline] μM in combination [2, 25]: 450 ± 100 µM
viability and permeability of HEK-293 cells [10]: killed all the HEK-293 cells

CN(C)c1ccc(O)c2c1C[C@H]1C[C@H]3[C@H](N(C)C)C(O)=C(C(N)=O)C(=O)[C@@]3(O)C(O)=C1C2=O [minocycline]
time in which Tet^R E. coli developed resistance [11]: 4 to 6 days

O=C(O)c1cn(C2CC2)c2cc(N3CCNCC3)c(F)cc2c1=O [Ciprofloxacin]
MIC [12]: 700 µM (≈ 232 µg/mL)
recovery of ciprofloxacin activity by hydraphiles [13]: 10 fold
susceptibility of S. aureus 1199B [7]: resistant

CCCCCCCCCCCN1CCOCCOCCN(CCCCCCCCCCC)CCOCCOCC1 [C11 lariat ether, N,N′-bis(n-undecyl)-4,13-diaza-18-crown-6]
MIC (μM) E. coli [14]: 24 µM (≈ 13.7 µg/mL)
MIC (μM) B. subtilis [15]: 9 µM (≈ 5.14 µg/mL)
Antibiotic Used (μM) in combination ([16]; Rifampicin): 10 µM
Fold Enhancement ([16]; Rifampicin): 2 fold
Antibiotic Used (μM) in combination ([16]; Tetracycline): 2.5 µM
Fold Enhancement ([16]; Tetracycline): ~2 fold
MIC (μM) S. cerevisiae [17]: 1.5 µM (≈ 0.856 µg/mL)
MIC [18]: 24 µM (≈ 13.7 µg/mL)
Antibiotic Used (μM) in combination ([2]; amphiphile used 8 μM): 175 µM
Fold Enhancement ([2]; amphiphile used 8 μM): 5 fold
Antibiotic Used (μM) in combination ([2]; amphiphile used 16 μM): 87 µM
Fold Enhancement ([2]; amphiphile used 16 μM): 10 fold
Antibiotic Used (μM) in combination ([2]; amphiphile used 18 μM): 87 µM
Fold Enhancement ([2]; amphiphile used 18 μM): 10 fold
Antibiotic Used (μM) in combination ([2]; amphiphile used […] μM): 87 µM
Fold Enhancement ([2]; amphiphile used […] μM): 10 fold
MIC [5, 26]: 24 µM (≈ 13.7 µg/mL)
MIC [19]: 24 µM (≈ 13.7 µg/mL)
Antibiotic Used (μM) in combination [20, 27]: 15 µM
Fold Enhancement [20, 27]: 4 fold
Antibiotic Used (μM) in combination [20, 28]: 6 µM
Fold Enhancement [20, 28]: 10 fold
Antibiotic Used (μM) in combination [20, 29]: 3 µM
Fold Enhancement [20, 29]: 20 fold
Antibiotic Used (μM) in combination [20, 30]: 6 µM
Fold Enhancement [20, 30]: 10 fold
Antibiotic Used (μM) in combination [20, 31]: 3 µM
Fold Enhancement [20, 31]: 4 fold
Antibiotic Used (μM) in combination [20, 32]: 0.25 µM
Fold Enhancement [20, 32]: 48 fold
Antibiotic Used (μM) in combination [20, 33]: 1.5 µM
Fold Enhancement [20, 33]: 8 fold
Antibiotic Used (μM) in combination [20, 34]: 1 µM
Fold Enhancement [20, 34]: 12 fold
LD50 to HEK-293 [21]: 22 µM

COC(=O)[C@H]1[C@H]2C[C@@H]3c4[nH]c5cc(OC)ccc5c4CCN3C[C@H]2C[C@@H](OC(=O)c2cc(OC)c(OC)c(OC)c2)[C@@H]1OC [Reserpine]
inhibition of NorA activity, lower than that of hydraphiles [3]: 30%
Fold Enhancement ([2]; amphiphile/control 64 μM): 2-fold
[Tetracycline] μM in combination ([2]; amphiphile/control 64 μM): 450 µM
[Tetracycline] μM in combination ([2]; amphiphile/control 128 μM): 225 µM
MIC ([5]; Escherichia coli, read-out: Minimal Inhibitory Concentrations (MIC) E. coli (Tet^R), compound alone, microtiter, inhibition greater than 80% considered as the MIC): > 128 µM
MIC ([7]; Staphylococcus aureus, 1199B, read-out: Minimal Inhibitory Concentrations (MIC) S. aureus 1199B): > 128 µM
accumulation of ethidium bromide (EB) in the cell cytoplasm [9]: much lower

CN(C)[C@@H]1C(O)=C(C(N)=O)C(=O)[C@@]2(O)C(O)=C3C(=O)c4c(O)cccc4[C@@](C)(O)[C@H]3C[C@@H]12 [tetracycline]
MIC [12]: 1000 µM (≈ 444 µg/mL)
Minimal Inhibitory Concentrations (MIC) K. pneumoniae [12, 24]: 1000 ± 100 µM
MIC ([18]; Escherichia coli): 6 µM (≈ 2.67 µg/mL)
recovery of tetracycline activity by hydraphiles [13]: 40 fold
MIC ([5]; Escherichia coli, compound alone, tetracycline resistant E. coli): ~900 µM (≈ 400 µg/mL)
Minimal Inhibitory Concentrations (MIC) E. coli (Tet^R) [5, 23]: 900 µM and 900 ± 100 µM
MIC [5, 26]: 900 ± 50 µM and 900 µM
